Data on four compounds can be found in US12540143B2, “Methods and compositions for targeted protein degradation” (Ranok Therapeutics (Hangzhou) Co. Ltd., priority 2019, dated 2026).

Assay [1] concerns the target T1, BRD4 (BD1+BD2) (Homo sapiens, UniProt O60885).
T1 construct: 1.8 μg/ml recombinant BRD4 (BD1+BD2 domains) protein
In words: BRD4 (BD1 + BD2) Binding HTRF Assay. As to conditions: read-out: BRD4 Binding Potency. The method, then:
A master mix was prepared with assay buffer, 1.8 μg/ml recombinant BRD4 (BD1+BD2 domains) protein, and 200-fold dilutions of Tb-labeled donor and dye-labeled acceptor. 40-fold dilutions of acetylated and non-acetylated ligands were prepared in 1×BRD TR-FRET assay buffer. Also, a serial 3-fold dilution of each compound was prepared ranging from 40 μM down until 2.0 nM. In a 384-well plate, 5 μl diluted ligand and 5 μl of compound dilution were added per well to duplicate wells and mixed by brief shaking. Then 10 μl of master mix was added per well, mixed by brief shaking, incubated at 25° C. for 2 hr and fluorescence was measured on an En Vision Plate Reader. The 665 nm/615 nm ratio was calculated from EnVision raw data. Data were normalized using whole-plate averages of “positive” and “negative” readings. A four-parameter “log[inhibitor] vs. response” curve was fitted using GraphPad Prism 7.0.
In general terms: TR-FRET usually uses a lanthanide donor and a delayed reading to cut background.

Assay [2] has as its system MV4-11 cells. Put plainly: MV4-11 Cytotoxicity Assay. The assay is classed as cell-based, human. As to conditions: Homo sapiens, read-out: MV4-11 cytotoxicity.
Assay [3] concerns the target HSP90α (Homo sapiens, UniProt P07900). Put plainly: HSP90α Binding Fluorescent Polarization (FP) Assay. As to conditions: competition with FITC-geldanamycin; read-out: HSP90 Binding Potency. The method, then: HSP90α Binding Fluorescent Polarization (FP) Assay
A master mix was prepared with assay buffer, BSA and FITC-geldanamycin. In a 96-well plate, a serial 3-fold dilution of each compound was prepared ranging from 40 μM down until 2.0 nM. Also in a 96-well plate, recombinant HSP90α protein was diluted to 28 μg/ml. Then, in a 384-well plate, 10 μl of master mix and 5 μl of compound dilution were added per well to duplicate wells and mixed by brief shaking. Then 5 μl of diluted HSP90α protein was added per well, mixed by brief shaking, incubated at 25° C. for 30, 60 and 120 min and fluorescence was measured on an En Vision Plate Reader. Background-subtracted mP values were calculated from En Vision raw data and a four-parameter “log[inhibitor] vs. response” curve was fitted using GraphPad Prism 7.0.

The target in assay [4] is T2, BRD4 (Homo sapiens, UniProt O60885).
T2 construct: endogenous in cells; host or cells: MV4-11
In words: BRD4 Degradation Flow Cytometry Assay in MV4-11 cells. The assay is classed as cell-based. As to conditions: for Percentage BRD4 degradation vs untreated: 24 hr, highest degradation percentage observed at concentrations between 40-1000 nM. As for the experimental part:
Protein Degradation Flow Cytometry
MV4-11 cells were plated in a 24-well tissue culture plate at a density of 350,000 cells/450 μL/well and incubated in 37° C./5% CO2 for 1 hr. Cells were then treated with compounds at various concentrations and incubated in 37° C./5% CO2 for 24 hr. Cells were harvested, washed once, counted and 200 μL of 1% paraformaldehyde/PBS was added and incubated for 15 min at room temperature. 200 μL of 1×PBS/0.4% Triton X-100 was added and incubated for 15 min at 4° C. Cells were washed three times and resuspended in 50 μL of 1×PBS/0.2% Triton X-100. 2 μL/10^6 cells of anti-BRD4 antibody (ABCAM, #128874) was added and mixed by pipetting up and down. Cells were incubated for 30 min at room temperature in the dark, washed three times and resuspended in 50 μL of 1×PBS/0.2% Triton X-100. Goat anti-rabbit IgG H&L antibody (1:2000 dilution) was added and mixed by pipetting up and down and incubated for 30 min at room temperature in the dark. Finally, cells were washed three times and resuspended in 200 μL of PBS for flow cytometric analysis.
(Flow cytometry measures light scatter and fluorescence of single cells or particles in a stream.)

Assay [5] has as its system MYC protein. In words: MYC Protein Expression HTRF Assay in MV4-11 cells. The assay is classed as cell-based. The conditions noted are these: Homo sapiens, 24 hr treatment. The method, then: MYC protein expression was measured using the Human c-Myc Cell-based Assay Kit (Cisbio, #63ADK053PEG), a homogeneous time resolved fluorescence (HTRF) assay. […] Cells were collected by centrifugation, supernatant removed by aspiration and 10 μL of lysis buffer was added and incubated for 45 min at room temperature while shaking. In a 384-well plate, 10 μL of cell lysate/well was combined with 10 μL of premixed antibody solution containing anti-human MYC-Eu3+ Cryptate prepared in detection buffer and incubated overnight at room temperature, whereupon the signal was measured. The ratio of the acceptor and donor emission signals for each individual well were calculated (ratio=665 nm/620 nm[…]).

SMILES strings stand for the structures. Counter-ions that a name gives are not always drawn. Like-named read-outs stand apart in the source and are kept apart here.

As for `Cc1sc2c(c1C)C(c1ccc(Cl)cc1)=N[C@@H](CCN1CCC(CN3CCN(Cc4ccc(-n5c(O)nnc5-c5cc(C(C)C)c(O)cc5O)cc4)CC3)CC1)c1nnc(C)n1-2` [Compound 76, trifluoroacetic acid], the IC50 in assay [1] is above 1000 nM; in assay [2] (MV4-11, 72 h), below 100 nM; in assay [3] it was 100 to 1000 nM.

In the case of `Cc1sc2c(c1C)C(c1ccc(Cl)cc1)=N[C@H](CC(=O)N1CCC(CN3CCN(Cc4ccc(-n5c(O)nnc5-c5cc(C(C)C)c(O)cc5O)cc4)CC3)CC1)c1nnc(C)n1-2` [Compound 5, 2-((6R)-4-(4-chlorophenyl)-2,3,9-trimethyl-6H-thieno[3,2-f][1,2,4]triazolo[4,3-a][1,4]diazepin-6-yl)-1-(4-((4-(4-(3-(2,4-dihydroxy-5-isopropylphenyl)-5-hydroxy-4H-1,2,4-triazol-4-yl)benzyl)piperazin-1-yl)methyl)piperidin-1-yl)ethanone, trifluoroacetic acid], the “Percentage BRD4 degradation vs untreated” value in assay [4] (MV4-11 cells) is given as “C (Degradation < 10%)”. Besides, the “BRD4 degradation (in words)” value in assay [4] (MV4-11 cells, flow cytometry) is given as “does not degrade BRD4”. Also, the IC50 is below 100 nM in assay [5] and below 100 nM in assay [2] (MV4-11, 72 h).

As to `Cc1sc2c(c1C)C(c1ccc(Cl)cc1)=N[C@@H](CC(=O)NC(C)c1ccc(CN3CCC(Cc4ccc(-n5c(O)nnc5-c5cc(C(C)C)c(O)cc5O)cc4)CC3)cc1)c1nnc(C)n1-2` (stereo in doubt) [Compound 82, 2-((S)-4-(4-chlorophenyl)-2,3,9-trimethyl-6H-thieno[3,2-f][1,2,4]triazolo[4,3-a][1,4]diazepin-6-yl)-N—((R)-1-(4-((4-(4-(3-(2,4-dihydroxy-5-isopropylphenyl)-5-hydroxy-4H-1,2,4-triazol-4-yl)benzyl)piperidin-1-yl)methyl)phenyl)ethyl)acetamide hydrochloride], the IC50 in assay [2] (MV4-11, 72 hr, CCK-8) is below 100 nM; in assay [3] it was 100 to 1000 nM.

For the compound `Cc1sc2c(c1C)C(c1ccc(Cl)cc1)=N[C@@H](CC(=O)N1CCC(CN3CCN(Cc4ccc(-n5c(O)nnc5-c5cc(C(C)C)c(O)cc5O)cc4)CC3)CC1)c1nnc(C)n1-2` [Compound 40, 2-((6S)-4-(4-chlorophenyl)-2,3,9-trimethyl-6H-thieno[3,2-f][1,2,4]triazolo[4,3-a][1,4]diazepin-6-yl)-1-(4-((4-(4-(3-(2,4-dihydroxy-5-isopropylphenyl)-5-hydroxy-4H-1,2,4-triazol-4-yl)benzyl)piperazin-1-yl)methyl)piperidin-1-yl)ethanone, trifluoroacetic acid], in assay [4] (MV4-11 cells), the “Percentage BRD4 degradation vs untreated” value is recorded as “A (Degradation > 50%)”. The “ability to degrade BRD4 after pretreatment” value in assay [4] (cells pretreated with a combination of a HSP90 binder and (+)-JQ1) is “significantly reduced”. In addition, the IC50 in assay [5] was below 100 nM.
